In patent publication US20220087987A1, “A METHOD FOR TREATING SWI/SNF COMPLEX-DEFICIENT CANCERS COMPRISING GLUTATHIONE (GSH) METABOLIC PATHWAY INHIBITOR” (National Cancer Center, priority 2018, published 2022):
Like-named read-outs stand apart in the source and are kept apart here. Square brackets hold non-standard residues; d marks the D form. Peptide text beside a SMILES is read from it. * marks the point of attachment. Sta = CC(C)C[C@H](N)[C@@H](O)CC(=O)O; Isovaleryl = CC(C)CC(=O)*

Legend:
ARID1A-KO HCT116 cells = assay: Drug library screen, cell viability (CellTiter-Glo); format: cell-based, human; design: key to Cell viability, KO: % viability relative to DMSO solvent-treated cells
Description: (§1) ARID1A-WT and ARID1A-KO HCT116 cancer cells were used for screening assays. […] Cell viability was assessed after 5 days using the CellTiter-Glo Luminescent Cell Viability Assay (Promega). Luminescence was measured using an Envision Multi-label plate reader (PerkinElmer). The luminescence reading was used to determine the cell viability relative to that of cells treated with solvent (DMSO). Candidate compounds were considered if viability of ARID1A-KO cells was less than […] was more than 80%.

ARID1A-WT HCT116 cells = assay: as above; format: cell-based, human; design: key to Cell viability, WT: % viability relative to DMSO solvent-treated cells
Description: as §1

[1] = HCT116 ARID1A-KO, 10 μM for 5 days, relative to cells treated with solvent (DMSO)
[2] = HCT116 ARID1A-WT, 10 μM for 5 days, relative to cells treated with solvent (DMSO)

Row | SMILES | Cell viability, KO (ARID1A-KO HCT116 cells; [1]) | Cell viability, WT (ARID1A-WT HCT116 cells; [2]) | Cell viability, KO (ARID1A-KO HCT116 cells) | Cell viability, WT (ARID1A-WT HCT116 cells)
1 | CCCC[C@@H](C)[C@@H](OC(=O)C[C@@H](CC(=O)O)C(=O)O)[C@H](C[C@@H](C)C[C@H](O)CCCC[C@@H](O)C[C@H](O)[C@H](C)N)OC(=O)C[C@@H](CC(=O)O)C(=O)O [Fumonisin B1] | 83.33 | 87.23 | – | –
2 | COc1ccc2c(c1)c1c3c(c4c5ccccc5n(C)c4c1n2CC(O)CN(C)C)C(=O)NC3=O (centres unmarked) [Go7874] | 4.256 | 3.01 | – | –
3 | CC1CNCCN1S(=O)(=O)c1cccc2cnccc12 (centres unmarked) [H-7] | 70.52 | 116.4721 | – | –
4 | O=S(=O)(NCCNC/C=C/c1ccc(Br)cc1)c1cccc2cnccc12 [H-89] | 119.4541 | 78.81 | – | –
5 | CCOC(=O)C1=C(N)Oc2ccc(Br)cc2C1C(C#N)C(=O)OCC (centres unmarked) [HA 14-1] | 119.1814 | 114.2556 | – | –
6 | CCCCN1C(=O)C2Cc3c([nH]c4ccccc34)C(c3cccc(O)c3)N2C1=O (centres unmarked) [HR22C16] | 17.39 | 12.52 | – | –
7 | CC(C)Cn1c(=O)n(C)c(=O)c2[nH]cnc21 [IBMX] | 114.2526 | 159.7152 | – | –
8 | O=Cc1ccc(N2CCOCC2)cc1O [IC60211] | 174.6736 | 131.0236 | – | –
9 | NC(=O)Nc1sc(-c2ccccc2)cc1C(N)=O [IKK-2 inhibitor VI] | 22.26 | 19.28 | – | –
10 | O=C(Nc1nc2ccccc2n1CCN1CCOCC1)c1cccc([N+](=O)[O-])c1 [IRAK-¼ inhibitor] | 160.7174 | 142.234 | – | –
11 | Cc1ccc2nc(NC(=O)CSc3nc4c(c(=O)n3-c3ccccc3)SCC4)sc2c1 [IWP-2] | 90.8 | 78.56 | – | –
12 | O=C(Nc1cccc2cccnc12)c1ccc(N2C(=O)[C@@H]3[C@H](C2=O)[C@@H]2C=C[C@H]3C2)cc1 [IWR-1-endo] | 75.98 | 76.34 | – | –
13 | CCOc1nc(NC(=O)Cc2cc(OC)ccc2OC)cc(N)c1C#N [JNK inhibitor VIII] | 189.4425 | 127.134 | – | –
14 | COc1ccc(S(=O)(=O)N(CCO)c2ccccc2CN(C)C/C=C/c2ccc(Cl)cc2)cc1 [KN93] | 23.47 | 20.89 | – | –
15 | CN([C@@H](Cc1ccc(OS(=O)(=O)c2cccc3cnccc23)cc1)C(=O)N1CCN(c2ccccc2)CC1)S(=O)(=O)c1cccc2cnccc12 [KN-62] | – | – | 131.0212 | 113.3229
16 | COC(=O)[C@@]1(OC)C[C@H]2O[C@]1(C)n1c3ccccc3c3c4c(c5c6ccccc6n2c5c31)C(=O)N(C)C4 [KT 5823] | 111.294 | 102.1181 | – | –
17 | CNC(=N)NCCC[C@H](N)C(=O)O [L-NMMA] | 116.4094 | 167.9828 | – | –
18 | c1ccc2c(-c3cnn4cc(-c5ccc(N6CCNCC6)cc5)cnc34)ccnc2c1 [LDN193189] | 2.712 | 2.832 | – | –
19 | C/C(O)=C(\C#N)C(=O)Nc1cc(Br)ccc1Br [LFM-A13] | 106.7176 | 93.88 | – | –
20 | O=c1cc(N2CCOCC2)oc2c(-c3ccccc3)cccc12 [LY294002] | 119.3969 | 127.2893 | – | –

Row | SMILES | Cell viability, KO (ARID1A-KO HCT116 cells; [1]) | Cell viability, WT (ARID1A-WT HCT116 cells; [2]) | Cell viability, KO (ARID1A-KO HCT116 cells) | Cell viability, WT (ARID1A-WT HCT116 cells)
21 | Cc1cccc(-c2nn3c(c2-c2ccnc4ccc(C(N)=O)cc24)CCC3)n1 [LY2157299] | 113.5072 | 91.31 | – | –
22 | O=C1C(Nc2ccccc2)=CC(=O)c2ncccc21 [LY 83583] | 4.788 | 4.357 | – | –
23 | CCC(=C/[C@H](C)C/C=C/C(C)=C/[C@@H](C)C(=O)[C@@H](C)[C@H](O)[C@@H](C)C/C(C)=C/C(=O)O)/C=C/[C@@H]1OC(=O)C=C[C@@H]1C [Leptomycin B*, Leptomycin B] | 4.969 | 5.031 | – | –
24 | CC(C)c1ccc2c(c1)c(SC(C)(C)C)c(CC(C)(C)C(=O)O)n2Cc1ccc(Cl)cc1 [MK 886] | 112.1339 | 116.7328 | – | –
25 | O=S(=O)(c1cccc2c(I)cccc12)N1CCCNCC1 [ML-7] | 78.88 | 76.67 | – | –
26 | O=C(Nc1cccc(NC(=O)c2cccc(O)c2O)c1)c1cccc(O)c1O [MST-312] | 7.703 | 7.363 | – | –
27 | CCCC[C@@H](C)/C=C(C)/C=C(\C)C(=O)NC1=C[C@@](O)(/C=C/C=C/C=C/C(=O)NC2=C(O)CCC2=O)[C@@H]2O[C@@H]2C1=O [Manumycin A] | 52.57 | 61.22 | – | –
28 | CCNCCCNCCCCNCCCNCC [N1,N12-Diethylspermine (BESpm), N1,N12-Diethylspermine] | 37.8 | 32.23 | – | –
29 | O=C1C(SCCO)=C(SCCO)C(=O)c2ccccc21 [NSC95397] | 15.8033 | 41.93 | – | –
30 | COc1ccc(OC)c2c(=S)c3ccccc3[nH]c12 [NSC625987] | 161.7582 | 136.0173 | – | –
31 | Cc1nc2c(O)cccc2c(=O)[nH]1 [NU1025] | 123.2356 | 174.885 | – | –
32 | NS(=O)(=O)c1ccc(Nc2nc(OCC3CCCCC3)c3[nH]cnc3n2)cc1 [NU6102] | 124.8924 | 112.51 | – | –
33 | COc1ccc(C2=N[C@@H](c3ccc(Cl)cc3)[C@@H](c3ccc(Cl)cc3)N2C(=O)N2CCNC(=O)C2)c(OC(C)C)c1 [Nutlin-3] | 25.82 | 23.89 | – | –
34 | CCCCCCCCCCCCCCCCCCc1ccc(C(=O)/C=C/C(=O)O)cc1 [OBAA] | 110.9715 | 199.8448 | – | –
35 | O=c1onc2cnc3ccccc3n12 [ODQ] | 84.9 | 84.47 | – | –
36 | C=CCc1cccc(/C=N/NC(=O)CN2CCN(Cc3ccccc3)CC2)c1O [PAC-1] | 9.44 | 6.045 | – | –
37 | COc1ccc(Cn2ccc3ccc(C(=O)NO)cc32)cc1 [PCI-34051] | 72.3 | 71.67 | – | –
38 | O=[N+]([O-])c1ccc(-c2nc(-c3ccc(F)cc3)c(-c3ccncc3)[nH]2)cc1 [PD169316] | 151.5532 | 161.5329 | – | –
39 | CCN(CC)CCCCNc1ncc2cc(-c3cc(OC)cc(OC)c3)c(NC(=O)NC(C)(C)C)nc2n1 [PD173074] | 7.568 | 8.446 | – | –
40 | COc1cccc(-c2cc(=O)c3ccccc3o2)c1N [PD 98059] | 111.8217 | 168.8128 | – | –

Row | SMILES | Cell viability, KO (ARID1A-KO HCT116 cells; [1]) | Cell viability, WT (ARID1A-WT HCT116 cells; [2]) | Cell viability, KO (ARID1A-KO HCT116 cells) | Cell viability, WT (ARID1A-WT HCT116 cells)
41 | OCCn1cc(-c2cnc3nnn(Cc4ccc5ncccc5c4)c3n2)cn1 [PF-04217903] | 93.9615 | 86.5829 | – | –
42 | O=C(Cc1ccccc1)Nc1c2c(nc3ccccc13)N(Cc1ccccc1)CC2 [PGP-4008] | 117.1066 | 106.0362 | – | –
43 | CN(C)CC(=O)Nc1ccc2[nH]c(=O)c3ccccc3c2c1 [PJ-34] | – | – | 15.94 | 18.28
44 | O=C1Nc2ccc3ncsc3c2/C1=C/c1cnc[nH]1 [PKR inhibitor] | – | – | 16.84 | 8.714
45 | CC(C)(C)n1nc(-c2cccc3ccccc23)c2c(N)ncnc21 [PP1 analog] | 69.2339 | 76.55 | – | –
46 | CC(C)(C)n1nc(-c2ccc(Cl)cc2)c2c(N)ncnc21 [PP2] | 149.4142 | 121.2434 | – | –
47 | CC(C)CC(=O)N[C@H](C(=O)N[C@H](C(=O)N[C@@H](CC(C)C)[C@@H](O)CC(=O)N[C@@H](C)C(=O)N[C@@H](CC(C)C)[C@@H](O)CC(=O)O)C(C)C)C(C)C [Pepstatin A] (Isovaleryl-VV[Sta]A[Sta]-OH) | 126.4531 | 115.9467 | – | –
48 | Cc1ccc(-c2cn3c4c(sc3n2)CCCC4)cc1 [Pifithrin-a (cyclic)] | 99.94 | 91.15 | – | –
49 | CC(C)[C@H](CO)Nc1nc(Nc2cccc(Cl)c2)c2ncn(C(C)C)c2n1 [Purvalanol A] | 33.47 | 51.32 | – | –
50 | O=C1Nc2ccc(I)cc2/C1=C/c1cc(Br)c(O)c(Br)c1 [RAF1 kinase inhibitor I] | 164.7652 | 127.271 | – | –
51 | O=C(NCCCCCCNC(=O)ON=C1CCCCC1)ON=C1CCCCC1 [RHC80267] | 92.22 | 82.45 | – | –
52 | O=C1Nc2ccccc2C2(CCN(CCc3ccc(C(F)(F)F)cc3)CC2)O1 [RS 102895] | 47.58 | 37.34 | – | –
53 | CN1C(=O)CN=C(c2ccc(Cl)cc2)c2cc(Cl)ccc21 [Ro 5-4864] | 98.27 | 92.88 | – | –
54 | CCCCOc1cc(CC2CNC(=O)N2)ccc1OC (centres unmarked) [Ro-20-1724] | 105.8008 | 163.0432 | – | –
55 | Nc1ncnc2c1nc(Sc1ccc(Cl)cc1)n2[C@@H]1O[C@@H]2COP(O)(=S)O[C@H]2[C@H]1O (some centres unmarked) [Rp-8-CPT-cOMPS] | 135.7084 | 110.9572 | – | –
56 | NC1CC1c1cc(F)cc(F)c1OCc1ccccc1 (centres unmarked) [S2101 (LSD1 inhibitor II)] | 83.95 | 80.52 | – | –
57 | Oc1ccc(-c2nc(-c3ccc(F)cc3)c(-c3ccncc3)[nH]2)cc1 [SB202190] | 191.0939 | 108.8022 | – | –
58 | COc1nccc(-c2c(-c3ccc(F)cc3)ncn2C2CCC(O)CC2)n1 (centres unmarked) [SB239063] | 174.3691 | 118.4502 | – | –
